Legend:
human TREK-1 = molecular target: T1, human TREK-1 (Homo sapiens, UniProt O95069); test: Patch clamp of TREK-1 current in CHO cells transfected with human TREK-1; format: cell-based; details: CHO cells heterologously expressing human TREK-1; ramp protocol -130 mV to +40 mV in 6 s
T1 construct: expressed in transfected cells; host or cells: CHO cells
T1 sequence (O95069 1-426): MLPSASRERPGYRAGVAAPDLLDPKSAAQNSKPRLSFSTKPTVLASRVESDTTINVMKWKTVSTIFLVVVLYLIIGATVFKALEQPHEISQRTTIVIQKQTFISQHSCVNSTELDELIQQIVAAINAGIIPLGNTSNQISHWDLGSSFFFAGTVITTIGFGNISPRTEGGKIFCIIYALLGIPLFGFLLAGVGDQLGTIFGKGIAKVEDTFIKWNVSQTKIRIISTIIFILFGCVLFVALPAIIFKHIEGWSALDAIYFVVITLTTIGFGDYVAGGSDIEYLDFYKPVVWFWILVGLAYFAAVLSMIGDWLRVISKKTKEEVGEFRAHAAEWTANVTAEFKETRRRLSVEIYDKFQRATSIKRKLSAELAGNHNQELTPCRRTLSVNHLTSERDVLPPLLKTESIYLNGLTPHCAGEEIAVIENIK
Description: (§1) FIG. 7. […] CHO cells were transfected with a plasmid encoding human TREK-1 and the current was studied by patch clamp. The current-voltage relation was determined using a ramp protocol that went from −130 mV to +40 mV in 6 s (after correction for the junction potential). Current was greater in the presence of meclofenamate. This is typical of 7 cells.
as §1, with “8.” for “7.”, “less” for “greater”, “trifluoperazine.” for “meclofenamate.”, “3” for “7”
(§2) CHO cells were transfected with a plasmid encoding human TREK-1 and the current was studied by patch clamp. The current-voltage relation was determined using a ramp protocol that went from −130 mV to +40 mV in 6 s (after correction for the junction potential). Current was greater in the presence of meclofenamate. This is typical of 7 cells.
as §2, with “less” for “greater”, “trifluoperazine.” for “meclofenamate.”, “3” for “7”

[1] = system: normal prostate epithelial cells (NPE) expressing TREK-1; test: MTT proliferation assay of normal prostate epithelial cells infected with TREK-1 adenovirus; format: cell-based; details: sipatrigine 10 μM; compared with NPE/TREK-1 and other groups; five paired experiments
Description: FIG. 3. Dominant-negative TREK-1 reduces proliferation of PC-3 cells. PC-3 cells were transfected with either dn-TREK (or a control vector (PEGFP) using GeneJammer (Stratagene) under standard conditions. Proliferation of these cells was measured using the MTT assay after the cells were plated at 1×10^5 cells/well in 96 well plates. Data are presented as the mean ±SEM of five experiments. * p<0.05 vs control and EGFP
FIG. 5. Expression of TREK-1 increases proliferation of normal prostate epithelial cells (NPE). Normal prostate epithelial cell cultures were obtained from Clonetics and infected with a TREK-1-containing adenovirus. Some virally infected cells were also treated with sipatrigine (10 μM), a TREK-1 blocker. Cell proliferation was assessed using the MTT assay as described in FIG. 3.
Normal prostate epithelial cell cultures were obtained from Clonetics and infected with a TREK-1-containing adenovirus. Some virally infected cells were also treated with sipatrigine (10 μM), a TREK-1 blocker. Cell proliferation was assessed using the MTT assay as described in FIG. 3.

| Structure (SMILES) | Effect on TREK-1 current (human TREK-1) | Cell proliferation (MTT) of TREK-1-infected NPE [1] |
| --- | --- | --- |
| Cc1ccc(Cl)c(Nc2ccccc2C(=O)O)c1Cl [Meclofenamate, Meclofenamic acid] | activates TREK-1 current |  |
| CN1CCN(CCCN2c3ccccc3Sc3ccc(C(F)(F)F)cc32)CC1 [Trifluoperazine] | inhibits TREK-1 current |  |
| CN1CCN(c2ncc(-c3cc(Cl)cc(Cl)c3Cl)c(N)n2)CC1 [sipatrigine] |  | no other groups were different |
